For 13 molecules, Ki and IC50 results are on record in patent publication EP4631938A1, “NITROGEN-CONTAINING HETEROCYCLE WITH SEROTONIN RECEPTOR-BINDING ACTIVITY AND CARBOCYCLIC DERIVATIVE” (Shionogi & Co., Ltd, priority 2022, dated 2024).

In test [1] the target is T1, human recombinant 5-HT2A receptor (Homo sapiens, UniProt P28223).
T1 construct: expressed in transfected cells; host or cells: Jump-In HEK cells (membrane preparation)
The test can be described thus: Test Example 1: 5-HT2A receptor binding inhibition test ([3H]-Ketanserin; non-specific ligand Serotonin HCl). The method, then:
The Kd value is calculated when the lot of the cell membrane is changed. 1 mmol/L non-specific binding calculating compound dissolved in DMSO or DMSO is previously dispensed to the microplate by 0.5 µL, and the cell membrane is diluted with an Assay buffer. The radioactive ligand solution is diluted step by step, and counts are checked with a liquid scintillator. The Assay buffer containing diluted cell membranes is dispensed by 50 µL/well into the microplate. The radioactive ligand solution is then dispensed by 50 µL/well into the microplate and the plate is sealed. The microplate is allowed to stand for 1.5 hours at room temperature (25°C). During this time, 50 mmol/L Tris-HCl (pH 7.4) is dispensed by 50 µL/well on the GF/B UniFilter plate and allowed to stand at 4°C for 1 hour or longer. Thereafter, filtration is performed with a Cell Harvester (PerkinElmer). The radioactive ligand solution is dispensed by 10 µL/well into empty wells of the GF/B UniFilter plate. After drying the GF/B UniFilter plate at room temperature, MicroScinti20 is dispensed by 50 µL/well into the GF/B UniFilter plate, and the plate is sealed. GF/B UniFilter plate is allowed to stand at room temperature overnight. The radioactivity of [^3H]-Ketanserin bound to the 5-HT2A receptor is measured using Microbeta2 (PerkinElmer) at a measurement time of 1 min/well. The Saturation curve is drawn from the measured value, and the Kd value is calculated from the slope of the Scatchard Plot.
A compound solution dissolved in DMSO is dispensed to a microplate by 0.5 µL, and a cell membrane and a hot ligand are each diluted with an Assay buffer. The Assay buffer containing diluted cell membrane is then dispensed by 50 µL/well into the microplate. The radioactive ligand solution is then dispensed by 50 µL/well into the microplate and the plate is sealed. Thereafter, the microplate is allowed to stand at room temperature (25°C) for 1.5 hours. During this time, 50 mmol/L Tris-HCl (pH 7.4) is dispensed by 50 µL/well into the GF/B UniFilter plate and allowed to stand at 4°C for 1 hour or longer. Thereafter, filtration is performed with a Cell Harvester (PerkinElmer). After drying the GF/B UniFilter plate at room temperature, MicroScinti20 is dispensed by 50 µL/well into the GF/B UniFilter plate, and the plate is sealed. GF/B UniFilter plate is allowed to stand at room temperature overnight. The radioactivity of [^3H]-Ketanserin bound to the 5-HT2A receptor is measured using Microbeta2 (PerkinElmer) at a measurement time of 1 min/well. Non-specific binding is calculated from the radioactivity of [^3H]-Ketanserin in the presence of 500 µmol/L Serotonin HCl of unlabeled ligand, and total binding is calculated from the radioactivity of [^3H]-Ketanserin in the absence of the compound of the present invention (Vehicle). Finally, the Ki value is calculated from the dose-response curve.
(The binding activity of the compound according to the present invention is calculated from the following binding inhibition rate (%).) Inhibition rate (%) = [1−(c−a)/(b−a)] × 100 [formula] • a; average cpm of non-specific binding • b; average cpm of total binding • c; cpm in the presence of the test compound
The compounds of the present invention were tested essentially as described above.

Test [2] deals with T2, human recombinant 5-HT2C receptor (Homo sapiens, UniProt P28335).
T2 construct: expressed in transfected cells; host or cells: Jump-In HEK cells (membrane preparation)
T2 sequence (P28335 33-458): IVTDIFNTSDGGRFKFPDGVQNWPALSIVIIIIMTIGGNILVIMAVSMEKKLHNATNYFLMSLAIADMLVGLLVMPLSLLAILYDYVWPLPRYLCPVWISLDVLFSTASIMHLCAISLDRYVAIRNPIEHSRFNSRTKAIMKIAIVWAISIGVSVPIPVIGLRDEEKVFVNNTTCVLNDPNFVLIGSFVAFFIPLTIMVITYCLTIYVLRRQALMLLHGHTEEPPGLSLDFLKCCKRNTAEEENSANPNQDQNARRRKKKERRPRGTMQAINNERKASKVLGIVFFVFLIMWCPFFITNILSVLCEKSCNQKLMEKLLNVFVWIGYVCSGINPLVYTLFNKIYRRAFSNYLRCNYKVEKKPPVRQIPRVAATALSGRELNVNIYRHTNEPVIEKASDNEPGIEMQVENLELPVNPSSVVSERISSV
The test can be described thus: Test Example 2: 5-HT2C receptor binding inhibition test ([3H]-Mesulergine; non-specific ligand Serotonin HCl). Summed up:
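Ki values come from dose-response curves of [3H]-mesulergine displacement from human 5-HT2C membranes after 2 h at 37°C, scored by scintillation counting of filter-bound radioactivity. Serotonin HCl (500 µmol/L) set non-specific binding; Kd per membrane lot was taken from Scatchard plots.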

The target of test [3] is T1, human recombinant 5-HT2A receptor. The test can be described thus: Test Example 1-2: 5-HT2A receptor binding inhibition test ([3H]-Ketanserin; non-specific ligand Ketanserin). Summed up: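 Ki values were derived from dose-response inhibition of [3H]-ketanserin binding; nonspecific binding was set with 500 µmol/L ketanserin, and Kd was set for each membrane lot from Scatchard saturation plots. Incubation lasted 1.5 h at room temperature (25 °C). Bound radioligand was harvested on Tris-HCl (pH 7.4)-presoaked filters and counted.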

Test [4] has as its target T2, human recombinant 5-HT2C receptor. Put plainly: Test Example 2-2: 5-HT2C receptor binding inhibition test ([3H]-Mesulergine; non-specific ligand Ketanserin). The following applies: non-specific binding with 500 µmol/L Ketanserin, 37°C, 2 hours. Summed up: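 Membranes expressing the receptor were incubated with compound and [3H]-Mesulergine for 2 h at 37 °C, then filtered and counted by scintillation. Non-specific binding was defined with 500 µmol/L Ketanserin. Percent inhibition versus vehicle gave dose-response curves, from which Ki was derived using a Kd from Scatchard saturation analysis.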

Test [5] deals with T3, human ether-a-go-go related gene (hERG) channel (Homo sapiens, UniProt Q12809).
T3 construct: expressed in transfected cells; host or cells: CHO cells
T3 sequence (Q12809 whole entry): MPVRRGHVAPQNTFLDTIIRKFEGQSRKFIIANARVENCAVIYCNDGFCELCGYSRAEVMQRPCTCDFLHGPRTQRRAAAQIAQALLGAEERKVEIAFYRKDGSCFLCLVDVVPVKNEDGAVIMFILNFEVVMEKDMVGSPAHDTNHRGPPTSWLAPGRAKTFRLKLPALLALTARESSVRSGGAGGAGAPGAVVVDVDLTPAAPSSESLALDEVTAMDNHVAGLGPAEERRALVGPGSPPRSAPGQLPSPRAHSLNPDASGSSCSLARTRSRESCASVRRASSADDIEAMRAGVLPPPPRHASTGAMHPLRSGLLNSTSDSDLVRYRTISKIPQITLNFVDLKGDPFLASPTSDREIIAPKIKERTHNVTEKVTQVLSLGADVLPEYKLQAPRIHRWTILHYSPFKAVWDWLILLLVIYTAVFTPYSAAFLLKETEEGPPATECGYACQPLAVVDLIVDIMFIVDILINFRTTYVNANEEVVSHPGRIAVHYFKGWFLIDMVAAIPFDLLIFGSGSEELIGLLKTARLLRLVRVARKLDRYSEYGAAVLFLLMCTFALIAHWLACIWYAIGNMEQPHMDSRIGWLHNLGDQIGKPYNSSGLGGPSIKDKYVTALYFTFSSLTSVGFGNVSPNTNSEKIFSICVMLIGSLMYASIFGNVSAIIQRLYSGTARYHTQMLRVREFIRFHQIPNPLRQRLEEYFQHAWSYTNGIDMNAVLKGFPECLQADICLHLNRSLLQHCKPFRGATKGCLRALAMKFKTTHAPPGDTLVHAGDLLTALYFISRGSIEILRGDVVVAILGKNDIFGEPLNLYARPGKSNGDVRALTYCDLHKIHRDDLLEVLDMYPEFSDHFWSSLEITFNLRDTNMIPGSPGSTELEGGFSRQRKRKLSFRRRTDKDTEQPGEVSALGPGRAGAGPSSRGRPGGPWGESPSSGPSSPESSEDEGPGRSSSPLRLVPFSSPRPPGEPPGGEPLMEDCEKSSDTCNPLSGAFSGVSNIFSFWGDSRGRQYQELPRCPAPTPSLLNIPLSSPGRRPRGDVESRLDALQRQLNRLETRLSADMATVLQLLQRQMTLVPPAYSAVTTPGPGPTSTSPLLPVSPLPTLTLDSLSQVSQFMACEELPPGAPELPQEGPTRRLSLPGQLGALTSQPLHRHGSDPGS
The test can be described thus: Test Example 3: hERG test (FluxORII thallium flux, FLIPR, 8000 cells/well). The class given is cell-based. The following applies: CHO cells expressing hERG channel, compound reacted for 10 minutes, 100% inhibition = E-4031 10.3 µmol/L. The method, then: (§1) For the purpose of evaluating risk of an electrocardiogram QT interval prolongation of the compound of the present invention, effects of the compound are studied by evaluating the activity of potassium channel using CHO cells expressing human ether-a-go-go related gene (hERG) channel.
(§2) Evaluation is performed using a FluxORII Green Potassium Ion Channel Assay kit (Invitrogen: Molecular Probes).
Cells (8000 cells/well/40 µL) are seeded in a 384 assay plate, and are incubated overnight (37°C, 5% CO2). […]
(§3) A cell plate is placed on a cell-based kinetic assay system FLIPR (Molecular Devices, LLC.), and the compound is added to the cells so as to have a desired concentration and reacted for 10 minutes. When a mixed solution of potassium and thallium as a stimulator is added thereto, the potassium channel is opened, and thallium that flowed into the cells binds to the fluorescent indicator, so that the intracellular fluorescence signal increases, and the potassium channel current is detected as a fluorescence signal. […] Then, the inhibition rate is calculated from the signal intensity at each concentration. IC50 is calculated from the inhibition rate at each concentration.
On the technique in general: Block of hERG is tested as a sign of cardiac risk.

The target of test [6] is T3, human ether-a-go-go related gene (hERG) channel. The test can be described thus: Test Example 3-2: hERG test (FluxORII thallium flux, FLIPR, 4000 cells/well). The class given is cell-based. The following applies: CHO cells expressing hERG channel, compound reacted for 10 minutes, 100% inhibition = E-4031 10.3 µmol/L. The method, then:
as §1, §2
Cells (4000 cells/well/40 µL) are seeded in a 384 assay plate, and are incubated overnight (37°C, 5% CO2). After replacing the medium with a Wash buffer (lxHBSS, 20 mM HEPES) with a microplate washer, a fluorescent indicator is added to the medium and allowed to incubate (37°C, 5% CO2) for 1 hour for incorporation of the fluorescent indicator into cells.
as §3

The mark [7] stands for this setting: [3H]-Ketanserin, non-specific binding with 500 µmol/L Serotonin HCl, room temperature (25°C), 1.5 hours, read-out: h 5-HT2A Ki.
Where [8] appears, read: [3H]-Mesulergine, non-specific binding with 500 µmol/L Serotonin HCl, 37°C, 2 hours.
Where [9] appears, read: [3H]-Ketanserin, non-specific binding with 500 µmol/L Ketanserin, room temperature (25°C), 1.5 hours, read-out: h 5-HT2A Ki.
Where [10] appears, read: human serotonin 5-HT2C receptor binding activity.

T1 sequence (P28223 whole entry): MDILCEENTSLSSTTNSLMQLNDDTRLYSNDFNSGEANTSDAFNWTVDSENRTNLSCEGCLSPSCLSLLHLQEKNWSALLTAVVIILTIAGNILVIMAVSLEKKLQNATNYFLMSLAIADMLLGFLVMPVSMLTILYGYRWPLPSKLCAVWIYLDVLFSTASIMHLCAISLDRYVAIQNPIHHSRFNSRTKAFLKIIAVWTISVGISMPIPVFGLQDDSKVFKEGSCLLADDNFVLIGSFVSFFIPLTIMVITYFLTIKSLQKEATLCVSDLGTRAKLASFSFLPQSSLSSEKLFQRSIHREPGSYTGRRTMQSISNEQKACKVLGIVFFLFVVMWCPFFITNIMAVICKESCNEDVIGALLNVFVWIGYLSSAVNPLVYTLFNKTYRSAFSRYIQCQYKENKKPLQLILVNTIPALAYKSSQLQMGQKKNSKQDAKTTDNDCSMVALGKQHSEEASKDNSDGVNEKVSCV

Consider `Cn1ncc(Br)c1-c1cc(Nc2ccc(C(F)(F)F)cc2)ccc1OCCO` [Compound I-001], for which the Ki in test [1] (setting [7]) amounted to 0.447 nM; in test [2] (setting [8]), 1.44 nM.

`Cn1ncc(Br)c1-c1cc(Nc2ccc(F)cc2)ccc1OCCO` [Compound I-003]: the inhibitory constant (Ki) was 0.597 nM in test [1] (setting [7]) and 11.4 nM in test [2] (setting [8]).

Consider `Cn1ncc(Br)c1-c1cc(Nc2ccc(C(F)(F)F)cn2)ccc1OCCO` [Compound I-004], for which the values for the inhibitory constant (Ki) in test [1] (setting [7]) and in test [2] (setting [8]) were 0.42 nM and 0.387 nM, respectively.

For the molecule `Cn1ncc(Br)c1-c1cc(Nc2ncc(C(F)(F)F)s2)ccc1OCCO` [Compound I-005], the Ki in test [1] (setting [7]) stood at 0.301 nM; in test [2] (setting [8]), 1.08 nM.

`Cn1ncc(Br)c1-c1cc(Nc2ccc(C(F)(F)F)nn2)ccc1OCCO` [Compound I-007]: the Ki in test [1] (setting [7]) came to 0.548 nM; in test [2] (setting [8]), 14.9 nM.

In the case of `Cn1nccc1-c1cc(Nc2ncc(C(F)(F)F)cc2F)ccc1OCCO` [Compound I-009], the inhibition constant (Ki) in test [1] (setting [7]) is 0.337 nM; in test [2] (setting [8]), 8.7 nM.

With `Cn1ncc(Br)c1-c1cc(Nc2ncc(C(F)(F)F)cc2F)ncc1OCCO` [Compound I-062], the figures for the inhibition constant Ki in test [3] and in test [4] were 0.286 nM and 0.366 nM, respectively. Moreover, in test [5], the half-inhibitory concentration (IC50) is above 52000 nM.

Regarding `Cc1cnn(C)c1-c1cc(Nc2ncc(C(F)(F)F)cc2F)ncc1OCCO` [Compound I-063], the inhibitory constant (Ki) in test [3] amounted to 0.337 nM; in test [4], 2.09 nM. In test [5], this molecule returned an IC50 above 52000 nM.

Take `Cn1ncc(Br)c1-c1cc(Nc2ncc(C(F)(F)F)cc2F)ncc1OC(F)(F)CO` [Compound I-228]: the Ki in test [3] (setting [9]) worked out at 0.316 nM; in test [2] (setting [10]), 0.748 nM. This molecule registered a concentration for half-maximal inhibition (IC50) in test [6] of 50600 nM.

With `Cc1nc(C)c(-c2nc(Nc3ccc(C(F)(F)F)cc3)c(F)cc2OCCO)c(C)n1` [Compound I-267], the values for the inhibition constant Ki in test [3] (setting [9]) and in test [2] (setting [10]) were 0.465 nM and 0.786 nM, respectively. Further, in test [6], the IC50 is above 52000 nM.

`Cc1nc(C)c(-c2cc(Nc3ccc(-c4ccc(F)cc4)cn3)cnc2O[C@H](C)CO)c(C)n1` [Compound I-271]: the inhibitory constant (Ki) in test [3] (setting [9]) was determined as 0.4 nM; in test [2] (setting [10]), 3.92 nM. The molecule also yielded an IC50 in test [6] above 52000 nM.

Regarding `CNC(=O)c1ccc(F)c(-c2cc(Nc3ncc(C(F)(F)F)cc3F)ncc2OCCO)c1F` [Compound I-359], the inhibition constant Ki in test [3] (setting [9]) was determined as 0.952 nM; in test [2] (setting [10]), 4.57 nM. The same molecule had an IC50 in test [6] above 52000 nM.

Consider `Cn1ncc(Br)c1-c1cc(Nc2ccc(C(F)(F)F)nc2)ccc1OCCO` [I-002], for which the Ki in test [1] is 0.375 nM; in test [2] (setting [8]) it was 19.2 nM.

The Ki is the equilibrium dissociation constant of an inhibitor or competing ligand from its target. The term IC50 denotes the concentration that inhibits the measured activity by half. The low end stands for greater potency in that assay, the high end for weaker potency in that assay.
